Results: PubChem BioAssay (NCI)
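Step 1: Grow cells in 96-well plates. Step 2: Expose to compound for 48 hours at 5 concentrations. Step 3: Interpolate endpoints linearly; if unreached, use highest concentration. TGI denotes the concentration required for complete inhibition of growth.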

Experiments:
Experiment in all cases: NCI tumour cell line growth inhibition, 48 h
U251 CNS = test system: U251 CNS
SK-OV-3 ovarian = test system: SK-OV-3 ovarian
RPMI-8226 leukemia = test system: RPMI-8226 leukemia
HCC-2998 colon = test system: HCC-2998 colon
MCF7 breast = test system: MCF7 breast
SNB-75 CNS = test system: SNB-75 CNS
UACC-257 melanoma = test system: UACC-257 melanoma
COLO 205 colon = test system: COLO 205 colon
HOP-18 NSCLC = test system: HOP-18 NSCLC
SN12C renal = test system: SN12C renal
SNB-19 CNS = test system: SNB-19 CNS
KM20L2 colon = test system: KM20L2 colon
A498 renal = test system: A498 renal
XF 498 CNS = test system: XF 498 CNS
OVCAR-8 ovarian = test system: OVCAR-8 ovarian
P388 leukemia = test system: P388 leukemia
K-562 leukemia = test system: K-562 leukemia
DMS 114 small cell lung = test system: DMS 114 small cell lung
MALME-3M melanoma = test system: MALME-3M melanoma
M19-MEL melanoma = test system: M19-MEL melanoma
HT29 colon = test system: HT29 colon
HCT-116 colon = test system: HCT-116 colon
NCI-H460 lung = test system: NCI-H460 lung
HOP-92 NSCLC = test system: HOP-92 NSCLC
SN12K1 renal = test system: SN12K1 renal
A549 NSCLC = test system: A549 NSCLC
HL-60(TB) leukemia = test system: HL-60(TB) leukemia
SK-MEL-5 melanoma = test system: SK-MEL-5 melanoma
KM12 colon = test system: KM12 colon
SF-295 CNS = test system: SF-295 CNS
OVCAR-4 ovarian = test system: OVCAR-4 ovarian
OVCAR-5 ovarian = test system: OVCAR-5 ovarian
P388/ADR leukemia = test system: P388/ADR leukemia
CCRF-CEM leukemia = test system: CCRF-CEM leukemia
OVCAR-3 ovarian = test system: OVCAR-3 ovarian
EKVX NSCLC = test system: EKVX NSCLC
CAKI-1 renal = test system: CAKI-1 renal
NCI/ADR-RES ovarian = test system: NCI/ADR-RES ovarian
NCI-H226 lung = test system: NCI-H226 lung
IGROV1 ovarian = test system: IGROV1 ovarian
SNB-78 CNS = test system: SNB-78 CNS
SF-539 CNS = test system: SF-539 CNS
DMS 273 small cell lung = test system: DMS 273 small cell lung
DLD-1 colon = test system: DLD-1 colon
HCT-15 colon = test system: HCT-15 colon
NCI-H522 lung = test system: NCI-H522 lung
UACC-62 melanoma = test system: UACC-62 melanoma
NCI-H23 lung = test system: NCI-H23 lung
SW-620 colon = test system: SW-620 colon
UO-31 renal = test system: UO-31 renal
SK-MEL-2 melanoma = test system: SK-MEL-2 melanoma
SK-MEL-28 melanoma = test system: SK-MEL-28 melanoma
HOP-62 NSCLC = test system: HOP-62 NSCLC
RXF 393 renal = test system: RXF 393 renal
SF-268 CNS = test system: SF-268 CNS
MOLT-4 leukemia = test system: MOLT-4 leukemia
LOX IMVI melanoma = test system: LOX IMVI melanoma
M14 melanoma = test system: M14 melanoma
RXF-631 renal = test system: RXF-631 renal
SR leukemia = test system: SR leukemia
LXFL 529 NSCLC = test system: LXFL 529 NSCLC
786-0 renal = test system: 786-0 renal
TK-10 renal = test system: TK-10 renal
ACHN renal = test system: ACHN renal

Compound CC1C(=O)OC2CC[N+]3(CC(=O)c4ccc(Br)cc4)CC=C(COC(=O)C(C)(O)C1(C)O)C23 (stereo not drawn) has a TGI (U251 CNS) of over 375 µM, a TGI (SK-OV-3 ovarian) of over 375 µM and a TGI (RPMI-8226 leukemia) of over 375 µM. For the same compound, the TGI (HCC-2998 colon) was over 375 µM, the TGI (MCF7 breast) was over 375 µM and the TGI (SNB-75 CNS) was over 375 µM. It also gave a TGI (UACC-257 melanoma) of over 375 µM, a TGI (COLO 205 colon) of over 375 µM and a TGI (HOP-18 NSCLC) of over 375 µM. It also gave a TGI (SN12C renal) of over 375 µM, a TGI (SNB-19 CNS) of over 375 µM and a TGI (KM20L2 colon) of over 266 µM. The TGI (A498 renal) was over 375 µM, the TGI (XF 498 CNS) was over 375 µM and the TGI (OVCAR-8 ovarian) was over 17.4 µM. For the same compound, the TGI (P388 leukemia) was over 174 µM, the TGI (K-562 leukemia) was over 375 µM and the TGI (DMS 114 small cell lung) was over 375 µM. The TGI (MALME-3M melanoma) was over 375 µM, the TGI (M19-MEL melanoma) was over 375 µM and the TGI (HT29 colon) was over 375 µM. It also gave a TGI (HCT-116 colon) of over 375 µM, a TGI (NCI-H460 lung) of over 375 µM and a TGI (HOP-92 NSCLC) of over 375 µM. For the same compound, the TGI (SN12K1 renal) was over 375 µM, the TGI (A549 NSCLC) was over 375 µM and the TGI (HL-60(TB) leukemia) was over 375 µM. It also gave a TGI (SK-MEL-5 melanoma) of over 375 µM, a TGI (KM12 colon) of over 375 µM and a TGI (SF-295 CNS) of over 375 µM. It also gave a TGI (OVCAR-4 ovarian) of over 375 µM, a TGI (OVCAR-5 ovarian) of over 375 µM and a TGI (P388/ADR leukemia) of over 375 µM. It also gave a TGI (CCRF-CEM leukemia) of over 375 µM, a TGI (OVCAR-3 ovarian) of over 375 µM and a TGI (EKVX NSCLC) of over 375 µM. It also gave a TGI (CAKI-1 renal) of over 375 µM, a TGI (NCI/ADR-RES ovarian) of over 375 µM and a TGI (NCI-H226 lung) of over 375 µM. It also gave a TGI (IGROV1 ovarian) of over 375 µM, a TGI (SNB-78 CNS) of over 174 µM and a TGI (SF-539 CNS) of over 375 µM. For the same compound, the TGI (DMS 273 small cell lung) was over 375 µM, the TGI (DLD-1 colon) was over 375 µM and the TGI (HCT-15 colon) was over 375 µM. For the same compound, the TGI (NCI-H522 lung) was over 375 µM, the TGI (UACC-62 melanoma) was over 375 µM and the TGI (NCI-H23 lung) was over 375 µM. The TGI (SW-620 colon) was over 375 µM, the TGI (UO-31 renal) was over 375 µM and the TGI (SK-MEL-2 melanoma) was over 375 µM. The TGI (SK-MEL-28 melanoma) was over 375 µM, the TGI (HOP-62 NSCLC) was over 375 µM and the TGI (RXF 393 renal) was over 375 µM. For the same compound, the TGI (SF-268 CNS) was over 375 µM, the TGI (MOLT-4 leukemia) was over 375 µM and the TGI (LOX IMVI melanoma) was over 375 µM.
For CS(=O)(=O)NNS(=O)(=O)c1cccc([N+](=O)[O-])c1, the TGI (U251 CNS) was over 100 µM, the TGI (RPMI-8226 leukemia) was over 100 µM and the TGI (HCC-2998 colon) was over 100 µM. The TGI (SNB-75 CNS) was over 100 µM, the TGI (UACC-257 melanoma) was over 100 µM and the TGI (COLO 205 colon) was over 100 µM. For the same compound, the TGI (SN12C renal) was over 100 µM, the TGI (SNB-19 CNS) was over 100 µM and the TGI (KM20L2 colon) was over 100 µM. It also gave a TGI (A498 renal) of over 100 µM, a TGI (XF 498 CNS) of over 100 µM and a TGI (OVCAR-8 ovarian) of over 100 µM. It also gave a TGI (M14 melanoma) of over 100 µM, a TGI (K-562 leukemia) of over 100 µM and a TGI (DMS 114 small cell lung) of over 100 µM. For the same compound, the TGI (MALME-3M melanoma) was over 100 µM, the TGI (RXF-631 renal) was over 100 µM and the TGI (M19-MEL melanoma) was over 100 µM. It also gave a TGI (HT29 colon) of over 100 µM, a TGI (HCT-116 colon) of over 100 µM and a TGI (NCI-H460 lung) of over 100 µM. It also gave a TGI (A549 NSCLC) of over 100 µM, a TGI (HL-60(TB) leukemia) of over 100 µM and a TGI (SK-MEL-5 melanoma) of over 100 µM. The TGI (KM12 colon) was over 100 µM, the TGI (SF-295 CNS) was over 100 µM and the TGI (OVCAR-4 ovarian) was over 100 µM. It also gave a TGI (SR leukemia) of over 100 µM, a TGI (LXFL 529 NSCLC) of over 100 µM and a TGI (CCRF-CEM leukemia) of over 100 µM. The TGI (EKVX NSCLC) was over 100 µM, the TGI (CAKI-1 renal) was over 100 µM and the TGI (NCI-H226 lung) was over 100 µM. The TGI (786-0 renal) was over 100 µM, the TGI (IGROV1 ovarian) was over 100 µM and the TGI (SF-539 CNS) was over 100 µM. The TGI (DMS 273 small cell lung) was over 100 µM, the TGI (DLD-1 colon) was over 100 µM and the TGI (TK-10 renal) was over 100 µM. For the same compound, the TGI (ACHN renal) was over 100 µM, the TGI (HCT-15 colon) was over 100 µM and the TGI (NCI-H522 lung) was over 100 µM. For the same compound, the TGI (UACC-62 melanoma) was over 100 µM, the TGI (NCI-H23 lung) was over 100 µM and the TGI (SW-620 colon) was over 100 µM. It also gave a TGI (UO-31 renal) of over 100 µM, a TGI (SK-MEL-2 melanoma) of over 100 µM and a TGI (HOP-62 NSCLC) of over 100 µM. For the same compound, the TGI (RXF 393 renal) was over 100 µM, the TGI (MOLT-4 leukemia) was over 100 µM and the TGI (LOX IMVI melanoma) was over 100 µM.
